pIC50, pKi: −log10 of the molar value.
Tests used:
[1] = target: T1, Tyrosine-protein phosphatase non-receptor type 1 (Homo sapiens, UniProt P18031); assay: Inhibition of human recombinant PTP1B
T1 sequence (P18031 whole entry): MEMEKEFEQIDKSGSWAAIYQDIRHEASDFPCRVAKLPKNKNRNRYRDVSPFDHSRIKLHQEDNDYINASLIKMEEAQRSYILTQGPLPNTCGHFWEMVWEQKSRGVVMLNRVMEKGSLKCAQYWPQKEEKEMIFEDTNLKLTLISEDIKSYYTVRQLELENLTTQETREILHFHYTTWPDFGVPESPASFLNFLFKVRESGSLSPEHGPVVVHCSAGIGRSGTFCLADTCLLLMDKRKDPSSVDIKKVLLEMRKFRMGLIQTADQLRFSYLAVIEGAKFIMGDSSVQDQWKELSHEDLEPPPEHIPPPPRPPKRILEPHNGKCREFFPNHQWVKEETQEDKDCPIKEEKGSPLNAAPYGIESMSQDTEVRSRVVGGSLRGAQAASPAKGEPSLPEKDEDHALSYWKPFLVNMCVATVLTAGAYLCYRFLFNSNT

[2] = target: T1, Tyrosine-protein phosphatase non-receptor type 1; assay: Inhibition of human recombinant PTP1B by Lineweaver-Burke plot

Q: How did the pIC50 [1] turn out when O=C1C[C@@H]2c3ccccc3O[C@H]3c4cc(O)ccc4-c4c(O)cc(O)c1c4[C@H]23 [OHIOENSIN A] was run?
A: Its pIC50 is 5.37.

Q: COc1cc(O)c2c3c1-c1c(O)cccc1[C@@H]1Oc4ccccc4[C@@H](CC2=O)[C@@H]31 [OHIOENSIN C] was tested. Which pIC50 [1] did it give?
A: The pIC50 was 5.12.

Q: With O=C1c2c(O)cc(O)c3c2[C@@H]2[C@@H](c4ccccc4O[C@H]2c2cccc(O)c2-3)[C@H]1O [OHIOENSIN G] as the compound, how does the pIC50 [1] read?
A: The pIC50 was 5.25.

Q: With O=C1C[C@]2(O)c3ccccc3O[C@H]3c4cc(O)ccc4-c4c(O)cc(O)c1c4[C@@H]32 [OHIOENSIN F] as the compound, how does the pIC50 [1] read?
A: Its pIC50 is 5.46.

Q: What about the pKi [2] of the same compound?
A: Its pKi is 5.82.
